Measurements from patent US11835523B2, “Assays for improving automated antimicrobial susceptibility testing accuracy” (priority 2018, dated 2023).

Tested on: beta lactamase
Experiment: Beta-lactamase inhibitor assay with nitrocefin probe (Example 1, FIG. 1)
Assay type: cell-based
Conditions: 4 μg/mL inhibitor, 0.25 mg/mL nitrocefin, 35° C., 4 hours
Protocol: By comparing the signal from an “inhibited” well to one containing the probe and microbes alone, the efficacy of the inhibitor may be tested.
Microbes were prepared by diluting colonies into saline to reach a McFarland value of 0.5, which was verified using a spectrophotometer. This was diluted 1:20 into saline and 50 μI of inoculum was added to wells of a 384-well plate. For each strain, 25 μI of solutions containing either 0.25 mg/mL nitrocefin alone (Nitro), 0.25 mg/mL nitrocefin and 4 μg/mL clauvulanate (Nitro Clay), or 0.25 mg/mL nitrocefin and 4 μg/mL tazobactam (Nitro Tazo) were added to duplicate wells. Inoculated plates were incubated at 35° C., shaking at 150 rpm for 4 hours. Absorbance was read at 490 nm and values shown in FIG. 1 are the absorbance in the indicated condition minus the absorbance from microbial inoculum alone without nitrocefin. A greater value indicates microbial ability to degrade nitrocefin, and thus, the presence of a beta lactamase. A reduction in absorbance value in the presence of an inhibitor indicates the beta lactamase present is sensitive to the inhibitor.

Row | SMILES | inhibitor activity against strains with known beta lactamases (reduction in nitrocefin absorbance at 490 nm)
1 | C[C@]1(Cn2ccnn2)[C@H](C(=O)O)N2C(=O)C[C@H]2S1(=O)=O [tazobactam] | active
2 | O=C(O)[C@H]1/C(=C/CO)O[C@@H]2CC(=O)N21 [clauvulanate] | active
